Active and inactive are the calls of the source. No cut-off for these calls is given here.
Assays:
Escherichia coli [1] = experiment: Bacteriostatic activity against Escherichia coli NCIM 2065 at 500 ug/disk after 24 hr by disk diffusion method; type: functional, organism-based
Staphylococcus aureus [2] = experiment: Bacteriostatic activity against Staphylococcus aureus NCIM 5021 at 500 ug/disc after 24 hr by disk diffusion method; type: functional, organism-based
Candida albicans [3] = experiment: Fungistatic activity against Candida albicans NCIM 3074 at 500 ug/disk after 24 hr by disk diffusion method; type: functional, organism-based
Nakaseomyces glabratus [4] = experiment: Fungistatic activity against Candida glabrata NCIM 3236 at 500 ug/disk after 24 hr by disk diffusion method; type: functional, organism-based
Escherichia coli [5] = experiment: Bacteriostatic activity against Escherichia coli NCIM 2065 at 20 ug/disk after 24 hr by disk diffusion method; type: functional, organism-based
Candida albicans [6] = experiment: Antifungal activity against Candida albicans NCIM 3074 at 500 ug/disk after 24 hr by disk diffusion method; type: functional; conditions: NCIM 3074, 24 h, read-out: IZ
Staphylococcus aureus [7] = experiment: Bacteriostatic activity against Staphylococcus aureus NCIM 5021 at 20 ug/disc after 24 hr by disk diffusion method; type: functional, organism-based
Nakaseomyces glabratus [8] = experiment: Antifungal activity against Candida glabrata NCIM 3236 at 500 ug/disk after 24 hr by disk diffusion method; type: functional; conditions: NCIM 3236, 24 h, read-out: IZ
Staphylococcus aureus [9] = experiment: Antibacterial activity against Staphylococcus aureus NCIM 5021 at 500 ug/disc after 24 hr by disk diffusion method; type: functional; conditions: NCIM 5021, 24 h, read-out: IZ
Escherichia coli [10] = experiment: Antibacterial activity against Escherichia coli NCIM 2065 at 500 ug/disk after 24 hr by disk diffusion method; type: functional; conditions: NCIM 2065, 24 h, read-out: IZ
Candida albicans [11] = experiment: Antifungal activity against Candida albicans NCIM 3074 assessed as inhibition of germ tube formation after 3 to 4 hr; type: functional
Candida albicans [12] = experiment: Antifungal activity against Candida albicans NCIM 3074 after 24 hr by NCCLS broth microdilution method; type: functional; conditions: NCIM 3074, 24 h
Candida albicans [13] = experiment: Fungicidal activity against Candida albicans NCIM 3074 after 24 hr by NCCLS broth microdilution method; type: functional; conditions: NCIM 3074, 24 h
Staphylococcus aureus [14] = experiment: Bactericidal activity against Staphylococcus aureus NCIM 5021 after 24 hr by NCCLS broth microdilution method; type: functional; conditions: NCIM 5021, 24 h
Staphylococcus aureus [15] = experiment: Antibacterial activity against Staphylococcus aureus NCIM 5021 after 24 hr by NCCLS broth microdilution method; type: functional; conditions: NCIM 5021, 24 h
Nakaseomyces glabratus [16] = experiment: Fungistatic activity against Candida glabrata NCIM 3236 at 25 ug/disk after 24 hr by disk diffusion method; type: functional, organism-based
Candida albicans [17] = experiment: Fungistatic activity against Candida albicans NCIM 3074 at 25 ug/disk after 24 hr by disk diffusion method; type: functional, organism-based
[18] = Cytotoxicity against Homo sapiens (human) erythrocytes assessed as hemolytic activity at 124.96 uM after 1 hr; type: cell-based, Erythrocyte; conditions: read-out: Activity
Candida albicans [19] = experiment: Inhibition of Candida albicans phospholipase at 124.96 uM after 30 min
[20] = Cytotoxicity against Homo sapiens (human) erythrocytes assessed as hemolytic activity at 15.62 uM after 1 hr; type: cell-based, Erythrocyte; conditions: read-out: Activity

Structure (SMILES) | Activity (Candida albicans [3]) | Activity (Nakaseomyces glabratus [4]) | zone of inhibition at 500 µg/disc (Candida albicans [6]) [mm] | zone of inhibition at 500 µg/disc (Nakaseomyces glabratus [8]) [mm] | zone of inhibition at 500 µg/disc (Staphylococcus aureus [9]) [mm] | zone of inhibition at 500 µg/disc (Escherichia coli [10]) [mm] | other results
CCC[n+]1ccc(N)cc1 | inactive | inactive |  |  |  |  | Activity (Escherichia coli [1]): Active; Activity (Staphylococcus aureus [2]): Active
C[C@@H]1[C@H](O)[C@@H](C)/C=C/C=C/C=C/C=C/C=C/C=C/C=C/[C@H](O[C@@H]2O[C@H](C)[C@@H](O)[C@H](N)[C@@H]2O)C[C@@H]2O[C@](O)(C[C@@H](O)C[C@@H](O)[C@H](O)CC[C@@H](O)C[C@@H](O)CC(=O)O[C@H]1C)C[C@H](O)[C@H]2C(=O)O [AMPHOTERICIN B] |  |  | 10 | 14 |  |  | Activity (Escherichia coli [5]): inactive; Activity (Staphylococcus aureus [7]): inactive
CCCCCCC[n+]1ccc(N)cc1 |  |  | 10.5 | 16 | 25 | 26 | 
CCCCCCCCCCCCCCCC[n+]1ccc(N)cc1.[Br-] |  |  | 26.5 | 30 | 36 | 34 | INH (Candida albicans [11]): 15.62 µM; MIC (Candida albicans [12]): 15.6 µM; MFC (Candida albicans [13]): 31.2 µM; MBC (Staphylococcus aureus [14]): 15.6 µM; MIC (Staphylococcus aureus [15]): < 15.6 µM
CCCC[n+]1ccc(N)cc1 | inactive | inactive |  |  |  |  | Activity (Escherichia coli [1]): Active; Activity (Staphylococcus aureus [2]): Active
CCCCCCCCCCCCCC[n+]1ccc(N)cc1 |  |  | 9 | 8.5 | 6 | 6.5 | 
CCCCCCCCn1ccc(=N)cc1 |  |  | 14 | 22 | 25 | 27 | 
CN[C@@H]1[C@H](O[C@H]2[C@H](O[C@H]3[C@H](O)[C@@H](O)[C@H](N=C(N)N)[C@@H](O)[C@@H]3N=C(N)N)O[C@@H](C)[C@]2(O)C=O)O[C@@H](CO)[C@H](O)[C@H]1O [STREPTOMYCIN] |  |  |  |  | 30 | 32 | Activity (Nakaseomyces glabratus [16]): inactive; Activity (Candida albicans [17]): inactive
CCCCCCCCCCn1ccc(=N)cc1 |  |  | 23.5 | 26 | 28 | 29 | hemolysis at 1 h, 124.96 µM [18]: 97.4%; inhibition (Candida albicans [19]): Active; hemolysis at 1 h, 15.62 µM [20]: 0.57%
CCCCCCn1ccc(=N)cc1 | Active |  |  | 10 | 21 | 18 | 
CCCCC[n+]1ccc(N)cc1 | inactive | Active |  |  | 14 | 16 | 
CCn1ccc(=N)cc1 | inactive | inactive |  |  |  |  | Activity (Escherichia coli [1]): inactive; Activity (Staphylococcus aureus [2]): inactive

— ChEMBL document CHEMBL3045999, “Synthesis, characterization and antimicrobial activity of 4-amino-1-alkyl pyridinium salts” (Med Chem Res, 2012)
